Measurements: patent US20260242404A1, “INTERGLYCAN ESTERS OF SUCROSE DICARBOXYLATE AND FRUCTOFURANURONATE, PROCESS FOR THE MANUFACTURE THEREOF, AND USE THEREOF AS A HYPOGLYCEMIC SLOW SUGAR” (priority 2022, published 2026)

What was measured:
[1] = system: blood sugar (glucose levels in the blood); assay: Glycemic index by oral induced hyperglycemia protocol (HGPVO / OGTT); type: in vivo; details: analyses repeated on two subjects, traditional commercial white sugar as control (FIG. 9)
HbA1c = HbA1c level calculated from average blood sugar level; type: in vivo; details: HbA1C 7% = 1.5 g/L average blood sugar, 1% HbA1C = 0.30 g/litre
Source text: Its consumption is therefore intended for healthy subjects and also for type 2 diabetics. […] For the new natural white granulated or powdered slow sugar of this invention the following result is obtained: [formula] For traditional white commercial sugar and for comparison purposes we obtain the following result: [formula]

OC[C@H]1O[C@@](CO)(O[C@H]2O[C@H](CO)[C@@H](O)[C@H](O)[C@H]2O)[C@@H](O)[C@@H]1O [commercial white natural sugar, sucrose]
glycemic index, in words [1]: very high
increases HbA1c level by (HbA1c): 9.2%
